Experimental data from article PMC12147714 (FEMS Microbiology Letters, 2025).

Key:
Format in all cases: cell-based, Pseudomonas aeruginosa
PAO1 producing IMP-1 = assay: MIC and checkerboard by broth microdilution, recombinant strain; details: antibiotic alone
Text: (§1) Pseudomonas aeruginosa isolate, PAO1, was used alongside its isogenic counterpart, PAO1 TnoprD, which lacks a functional OprD porin (Held et al. [2012]). β-lactamases, blaIMP-1, blaIMP-10, blaIMP-13, blaNDM-1, blaSPM-1, blaVIM-1, blaVIM-2, and blaKPC-2, had previously been cloned into the pUCP24 shuttle vector (Bouvier et al. [2025]), and were transformed by electroporation into both PAO1 and PAO1 TnoprD.
(§2) . MICs of DMSA, CAZ, FEP and checkerboards for the combinations, CAZ/DMSA and FEP/DMSA, were performed for all clinical isolates. All susceptibility testing results were interpreted according to CLSI guidelines (CLSI [2023]). The fractional inhibitory concentration index (FICI) was calculated and interpreted as follows: the MIC of drug A in combination/the MIC of drug A alone + the MIC of drug B in combination/the MIC drug B alone. FICI ≤ 0.5 = synergy; 0.5 < FICI ≤ 1 = additive; FICI 1 < FICI < 2 = indifference, and FICI ≥ 2 = antagonism. All susceptibility testing/checkerboard assays were performed in triplicate.

[1] = tested on: clinical isolate D10 (IMP-7); assay: microbe, parasite or virus in culture
Protocol: (§3) Thirty-two carbapenem-resistant clinical P. aeruginosa, with previously defined carbapenem-resistance mechanisms, were included.
(§4) The fractional inhibitory concentration index (FICI) was calculated and interpreted as follows: the MIC of drug A in combination/the MIC of drug A alone + the MIC of drug B in combination/the MIC drug B alone. FICI ≤ 0.5 = synergy; 0.5 < FICI ≤ 1 = additive; FICI 1 < FICI < 2 = indifference, and FICI ≥ 2 = antagonism. All susceptibility testing/checkerboard assays were performed in triplicate.

[2] = tested on: clinical isolate D2 (IMP-1); assay: microbe, parasite or virus in culture
Protocol: as §3, §4

[3] = tested on: clinical isolate D9 (IMP-7); assay: microbe, parasite or virus in culture
Protocol: as §3, §4

[4] = tested on: clinical isolate D18 (IMP-18); assay: microbe, parasite or virus in culture
Protocol: as §3, §4

[5] = tested on: clinical isolate D15 (IMP-13); assay: microbe, parasite or virus in culture
Protocol: as §3, §4

[6] = tested on: clinical isolate D24 (VIM-2); assay: microbe, parasite or virus in culture
Protocol: as §3, §4

[7] = tested on: clinical isolate D22 (NDM-1, VIM-2); assay: microbe, parasite or virus in culture
Protocol: as §3, §4

[8] = tested on: clinical isolate D30 (KPC-2); assay: microbe, parasite or virus in culture
Protocol: as §3, §4

[9] = tested on: clinical isolate D26 (VIM-4); assay: microbe, parasite or virus in culture
Protocol: as §3, §4

[10] = tested on: clinical isolate D14 (IMP-10); assay: microbe, parasite or virus in culture
Protocol: as §3, §4

[11] = tested on: clinical isolate D31 (Permeability); assay: microbe, parasite or virus in culture
Protocol: as §3, §4

[12] = tested on: clinical isolate D3 (IMP-1); assay: microbe, parasite or virus in culture
Protocol: as §3, §4

[13] = tested on: clinical isolate D16 (IMP-13); assay: microbe, parasite or virus in culture
Protocol: as §3, §4

[14] = tested on: clinical isolate D8 (IMP-4); assay: microbe, parasite or virus in culture
Protocol: as §3, §4

[15] = tested on: clinical isolate D32 (Permeability); assay: microbe, parasite or virus in culture
Protocol: as §3, §4

[16] = tested on: clinical isolate D5 (IMP-1); assay: microbe, parasite or virus in culture
Protocol: as §3, §4

[17] = tested on: clinical isolate D28 (GES-5, OXA-181); assay: microbe, parasite or virus in culture
Protocol: as §3, §4

[18] = tested on: clinical isolate D29 (KPC-2); assay: microbe, parasite or virus in culture
Protocol: as §3, §4

[19] = tested on: clinical isolate D11 (IMP-7); assay: microbe, parasite or virus in culture
Protocol: as §3, §4

[20] = tested on: clinical isolate D6 (IMP-1); assay: microbe, parasite or virus in culture
Protocol: as §3, §4

[21] = tested on: clinical isolate D27 (VIM-36); assay: microbe, parasite or virus in culture
Protocol: as §3, §4

[22] = tested on: clinical isolate D20 (NDM-1); assay: microbe, parasite or virus in culture
Protocol: as §3, §4

[23] = tested on: clinical isolate D23 (VIM-2); assay: microbe, parasite or virus in culture
Protocol: as §3, §4

[24] = tested on: clinical isolate D7 (IMP-1); assay: microbe, parasite or virus in culture
Protocol: as §3, §4

[25] = tested on: clinical isolate D13 (IMP-7); assay: microbe, parasite or virus in culture
Protocol: as §3, §4

[26] = tested on: clinical isolate D12 (IMP-7); assay: microbe, parasite or virus in culture
Protocol: as §3, §4

[27] = tested on: clinical isolate D4 (IMP-1); assay: microbe, parasite or virus in culture
Protocol: as §3, §4

[28] = tested on: clinical isolate D25 (VIM-4); assay: microbe, parasite or virus in culture
Protocol: as §3, §4

[29] = tested on: clinical isolate D17 (IMP-13); assay: microbe, parasite or virus in culture
Protocol: as §3, §4

[30] = tested on: clinical isolate D21 (NDM-1); assay: microbe, parasite or virus in culture
Protocol: as §3, §4

[31] = tested on: clinical isolate D1 (IMP-1); assay: microbe, parasite or virus in culture
Protocol: as §3, §4

[32] = tested on: clinical isolate D19 (IMP-4, OXA-181, VIM-5); assay: microbe, parasite or virus in culture
Protocol: as §3, §4

[33] = tested on: PAO1 and PAO1 TnoprD producing one of eight different carbapenemases; assay: MIC and checkerboard, isogenic strains as a group
Text: as §1, §2

CC(C)(O/N=C(\C(=O)N[C@@H]1C(=O)N2C(C(=O)[O-])=C(C[n+]3ccccc3)CS[C@H]12)c1csc(N)n1)C(=O)O [CAZ, ceftazidime]
synergy (FICI ≤ 0.5 = synergy): interaction with DMSA as indicated by the FICIs ([33]; SPM-1 and VIM-1 strains, DMSA 200 mg/l) | interaction with DMSA as indicated by the FICIs ([33]; strains producing IMP-1, IMP-10 or IMP-13, with and without functional OprD, all three DMSA concentrations (100, 200, 300 mg/l))
1020 µg/mL: MIC (PAO1 producing IMP-1) | MIC ([2]; Pseudomonas aeruginosa) | MIC ([4]; Pseudomonas aeruginosa) | MIC ([10]; Pseudomonas aeruginosa) | MIC ([24]; Pseudomonas aeruginosa) | MIC ([27]; Pseudomonas aeruginosa) | MIC ([31]; Pseudomonas aeruginosa)
32 µg/mL: MIC ([6]; Pseudomonas aeruginosa) | MIC ([23]; Pseudomonas aeruginosa) | MIC ([28]; Pseudomonas aeruginosa)
16 µg/mL: MIC ([15]; Pseudomonas aeruginosa) | MIC ([17]; Pseudomonas aeruginosa) | MIC ([18]; Pseudomonas aeruginosa)
4100 µg/mL: MIC ([7]; Pseudomonas aeruginosa) | MIC ([22]; Pseudomonas aeruginosa) | MIC ([30]; Pseudomonas aeruginosa) | MIC ([32]; Pseudomonas aeruginosa)
512 µg/mL: MIC ([1]; Pseudomonas aeruginosa) | MIC ([5]; Pseudomonas aeruginosa) | MIC ([12]; Pseudomonas aeruginosa) | MIC ([13]; Pseudomonas aeruginosa) | MIC ([16]; Pseudomonas aeruginosa) | MIC ([19]; Pseudomonas aeruginosa) | MIC ([20]; Pseudomonas aeruginosa) | MIC ([21]; Pseudomonas aeruginosa) | MIC ([25]; Pseudomonas aeruginosa) | MIC ([26]; Pseudomonas aeruginosa)
2050 µg/mL: MIC ([14]; Pseudomonas aeruginosa)
256 µg/mL: MIC ([3]; Pseudomonas aeruginosa) | MIC ([29]; Pseudomonas aeruginosa)
128 µg/mL: MIC ([9]; Pseudomonas aeruginosa) | MIC ([11]; Pseudomonas aeruginosa)
64 µg/mL: MIC ([8]; Pseudomonas aeruginosa)

O=C(O)[C@@H](S)[C@@H](S)C(=O)O [DMSA, meso-dimercaptosuccinic acid]
600 µg/mL: MIC ([1]; isolate D10, drug alone) | MIC ([2]; isolate D2, drug alone) | MIC ([4]; isolate D18, drug alone) | MIC ([6]; isolate D24, drug alone) | MIC ([13]; isolate D16, drug alone) | MIC ([17]; isolate D28, drug alone) | MIC ([19]; isolate D11, drug alone) | MIC ([26]; isolate D12, drug alone) | MIC ([28]; isolate D25, drug alone) | MIC ([31]; isolate D1, drug alone) | MIC ([32]; isolate D19, drug alone)
500 µg/mL: MIC ([5]; isolate D15, drug alone) | MIC ([14]; isolate D8, drug alone)
800 µg/mL: MIC ([8]; isolate D30, drug alone) | MIC ([16]; isolate D5, drug alone) | MIC ([18]; isolate D29, drug alone) | MIC ([20]; isolate D6, drug alone) | MIC ([21]; isolate D27, drug alone) | MIC ([24]; isolate D7, drug alone)
900 µg/mL: MIC ([10]; isolate D14, drug alone) | MIC ([27]; isolate D4, drug alone) | MIC to DMSA alone ([33]; all isogenic strains)
700 µg/mL: MIC ([3]; isolate D9, drug alone) | MIC ([7]; isolate D22, drug alone) | MIC ([9]; isolate D26, drug alone) | MIC ([12]; isolate D3, drug alone) | MIC ([15]; isolate D32, drug alone) | MIC ([22]; isolate D20, drug alone) | MIC ([23]; isolate D23, drug alone) | MIC ([25]; isolate D13, drug alone) | MIC ([29]; isolate D17, drug alone) | MIC ([30]; isolate D21, drug alone)
1000 µg/mL: MIC ([11]; isolate D31, drug alone)
